Test results taken from ChEMBL document CHEMBL4725303, “New V1a receptor antagonist. Part 1. Synthesis and SAR development of urea derivatives” (Bioorg Med Chem Lett, 2020).

Experiments:
Vasopressin V1a receptor [1] = target: T1, Vasopressin V1a receptor (Homo sapiens, UniProt P37288); test: Displacement of [3H]AVP from human V1a receptor expressed in […] cells assessed as dissociation constant by radioligand binding assay; type: cell-based, 1321N1
Target sequence in this assay (P37288 whole entry): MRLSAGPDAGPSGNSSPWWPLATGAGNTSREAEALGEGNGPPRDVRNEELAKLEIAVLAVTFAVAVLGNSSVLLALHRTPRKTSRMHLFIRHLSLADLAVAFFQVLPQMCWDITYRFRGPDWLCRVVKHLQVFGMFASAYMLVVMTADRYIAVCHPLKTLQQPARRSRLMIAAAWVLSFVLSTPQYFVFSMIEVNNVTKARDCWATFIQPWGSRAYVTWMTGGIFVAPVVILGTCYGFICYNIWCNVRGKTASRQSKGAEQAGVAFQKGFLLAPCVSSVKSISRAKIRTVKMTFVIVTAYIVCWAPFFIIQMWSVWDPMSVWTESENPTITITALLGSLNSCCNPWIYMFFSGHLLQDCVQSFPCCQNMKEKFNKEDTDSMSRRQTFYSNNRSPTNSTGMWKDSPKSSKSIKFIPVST

Vasopressin V1a receptor [2] = target: T1, Vasopressin V1a receptor; test: Antagonist activity at human V1a receptor expressed in human 1321N1 cells assessed as decrease in Arg8-vasopressin-stimulated calcium flux by fluorometric calcium assay; type: functional, cell-based
Target sequence in this assay (P37288 whole entry): as above

[3] = Metabolic stability in human liver microsomes assessed as intrinsic clearance at 1 uM in presence of NADPH by HPLC-UV analysis; type: ADME, Microsome; conditions: read-out: CLH
[4] = Metabolic stability in Wistar rat liver microsomes assessed as intrinsic clearance at 1 uM in presence of NADPH by HPLC-UV analysis; type: ADME, Microsome; conditions: read-out: CLH
[5] = Metabolic stability in NMRI mouse liver microsomes assessed as intrinsic clearance at 1 uM in presence of NADPH by HPLC-UV analysis; type: ADME, Microsome; conditions: read-out: CLH
[6] = Apparent permeability across apical to basolateral side in human Caco-2 cells at 1 uM by HPLC-UV or UHPLC-MS/MS analysis; type: ADME, cell-based
[7] = Apparent permeability across apical to basolateral side in human Caco-2 cells at 10 uM by HPLC-UV or UHPLC-MS/MS analysis; type: ADME, cell-based
[8] = Efflux ratio of Apparent permeability across apical to basolateral side in human Caco-2 cells at 10 uM by HPLC-UV or UHPLC-MS/MS analysis; type: ADME, cell-based
Vasopressin V1a receptor [9] = target: T1, Vasopressin V1a receptor; test: Antagonist activity at human V1a receptor expressed in human 1321N1 cells assessed as decrease in Arg8-vasopressin-stimulated calcium flux at 10 uM by fluorometric calcium assay relative to control; type: functional, cell-based
Target sequence in this assay (P37288 whole entry, looked up): as the sequence (P37288 whole entry) above

Structure (SMILES)	Ki (Vasopressin V1a receptor [1]) [nM]	IC50 (Vasopressin V1a receptor [2]) [nM]	further results
Cc1ccccc1N1CCN(C(=O)N2CN(C(=O)c3ccccc3)Cc3cc(Cl)ccc32)CC1	3	35	–
Cc1ccccc1N1CCN(C(=O)N2C[C@@H](C(=O)C3CCCC3)Cc3cc(Cl)ccc32)CC1	0.6	2.4	microsomal CLint at 1 µM [3]: 72 µL/min/mg; microsomal CLint at 1 µM [4]: 170 µL/min/mg; microsomal CLint at 1 µM [5]: 235 µL/min/mg; Papp A→B at 1 µM [6]: 10 ×10⁻⁶ cm/s
CC(=O)N1CCN(C(=O)N2CCN(c3ccccc3C)CC2)c2ccc(Cl)cc21	13	1400	–
CN1CCN(C(=O)C2CCN(c3ccccn3)CC2)c2ccc(Cl)cc21	14	260	microsomal CLint at 1 µM [3]: 80 µL/min/mg; microsomal CLint at 1 µM [4]: 404 µL/min/mg; microsomal CLint at 1 µM [5]: 132 µL/min/mg; Papp A→B at 10 µM [7]: 48 ×10⁻⁶ cm/s; efflux ratio at 10 µM [8]: 0.7
O=C(N1CCN(c2ncccc2Cl)CC1)N1CCNc2cc(Cl)ccc21	6	170	–
Cc1ccccc1N1CCN(C(=O)N2CN(S(C)(=O)=O)Cc3cc(Cl)ccc32)CC1	5.3	20	–
Cc1ccccc1N1CCN(C(=O)N2CN(C(=O)C3CCCC3)Cc3cc(Cl)ccc32)CC1	1	11	–
Cc1cccnc1N1CCN(C(=O)N2CCNc3cc(Cl)ccc32)[C@H](C)C1	70	750	–
Cc1ccccc1N1CCN(C(=O)C2CN(C(=O)C3CCCC3)Cc3cc(Cl)ccc32)CC1 (racemic)	6	35	microsomal CLint at 1 µM [3]: 188 µL/min/mg; microsomal CLint at 1 µM [4]: 179 µL/min/mg; microsomal CLint at 1 µM [5]: 341 µL/min/mg; Papp A→B at 1 µM [6]: 4.3 ×10⁻⁶ cm/s
CN(C)CCn1cc(C(=O)N2CCC3(CC2)OCc2ccccc23)c2ccc(Cl)cc21 [RO-5028442]	5.5	2	microsomal CLint at 1 µM [3]: 20 µL/min/mg; microsomal CLint at 1 µM [4]: 130 µL/min/mg; microsomal CLint at 1 µM [5]: 341 µL/min/mg; Papp A→B at 10 µM [7]: 15 ×10⁻⁶ cm/s; efflux ratio at 10 µM [8]: 0.9
Cc1ccccc1N1CCN(C(=O)N2CCN(C)c3cc(Cl)ccc32)CC1	7	300	–
Cc1ccccc1N1CCN(C(=O)N2CN(C(=O)C3(c4ccc(F)cc4)CC3)Cc3cc(Cl)ccc32)CC1	23	–	–
CC(=O)N1Cc2cc(Cl)ccc2N(C(=O)N2CCN(c3ccccc3C)CC2)C1	6	50	microsomal CLint at 1 µM [3]: 88 µL/min/mg; microsomal CLint at 1 µM [4]: 212 µL/min/mg; microsomal CLint at 1 µM [5]: 324 µL/min/mg; Papp A→B at 10 µM [7]: 39 ×10⁻⁶ cm/s; efflux ratio at 10 µM [8]: 0.7
O=C(N1CCN(c2ccccn2)CC1)N1CCNc2cc(Cl)ccc21	160	6800	–
O=C(N1CCC(N2CCCCC2)CC1)N1CCNc2cc(Cl)ccc21	–	–	inhibition (Vasopressin V1a receptor [9]): 11%
Cc1ccccc1N1CCN(C(=O)N2CCCc3cc(Cl)ccc32)CC1	4	200	–
Cc1ccccc1N1CCN(C(=O)C2CN(C(=O)C3CC3)Cc3cc(Cl)ccc32)CC1 (racemic)	25	–	–
Cc1ccccc1N1CCN(C(=O)C2CN(C(=O)C3CCCCC3)Cc3cc(Cl)ccc32)CC1 (single isomer, unassigned; (+))	4	21	–
C[C@H]1CN(C(=O)N2CCNc3cc(Cl)ccc32)CCN1c1ccccn1	62	1000	–
Cc1ccccc1N1CCN(C(=O)C2CN(C(=O)C(C)C)Cc3cc(Cl)ccc32)CC1 (racemic)	5	135	–
Cc1ccccc1N1CCN(C(=O)c2ccc(Cl)c(NC(=O)c3cccs3)c2)CC1	170	800	–
Cc1ccccc1N1CCN(C(=O)N2CN(C)Cc3cc(Cl)ccc32)CC1	3	85	–
C[C@H](NC(=O)[C@@H](CC(=O)N1CCC(N2CCCCC2)CC1)N1C(=O)[C@@H](N2C(=O)OC[C@@H]2c2ccccc2)[C@H]1/C=C/c1ccccc1)c1ccccc1	–	–	microsomal CLint at 1 µM [3]: 156 µL/min/mg; microsomal CLint at 1 µM [4]: 31 µL/min/mg; microsomal CLint at 1 µM [5]: 199 µL/min/mg; Papp A→B at 10 µM [7]: 4.7 ×10⁻⁶ cm/s
Cc1cccnc1N1CCN(C(=O)N2CCNc3cc(Cl)ccc32)CC1	2	450	–
Cc1ccccc1C1CCN(C(=O)N2CCNc3cc(Cl)ccc32)CC1	3	380	–

The remaining compounds from weak to strong by Ki (Vasopressin V1a receptor [1]), led by results:

Ki (Vasopressin V1a receptor [1]) [nM]	IC50 (Vasopressin V1a receptor [2]) [nM]	Structure (SMILES)	further results
560	1400	Cc1ccccc1N1CCN(C(=O)N2CCNc3ccc(Cl)cc32)CC1	–
440	–	CC(=O)N1CCN(C(=O)N2CCN(c3ccccc3C)CC2)c2ccc(F)cc21	inhibition (Vasopressin V1a receptor [9]; filed as antagonist): 62%
310	–	C[C@@H]1CN(C(=O)N2CCNc3cc(Cl)ccc32)CCN1c1ccccn1	inhibition (Vasopressin V1a receptor [9]; filed as antagonist): 57%
164	8300	O=C(N1CCN(Cc2ccccc2)CC1)N1CCNc2cc(Cl)ccc21	–
80	–	Cc1ccccc1N1CCN(C(=O)C2CN(C(=O)C3CC3)Cc3cc(Cl)ccc32)CC1 (single isomer, unassigned; (-))	–
70	2800	Cc1ccccc1N1CCN(C(=O)N2CCNc3ccccc32)CC1	–
40	280	Cc1ccccc1N1CCN(C(=O)C2CN(C(=O)C3CCCCC3)Cc3cc(Cl)ccc32)CC1 (stereo in doubt; (-)-47)	–
15	880	Cc1ccccc1N1CCN(C(=O)N2CCc3cc(Cl)ccc32)CC1	–
5	180	Cc1ccccc1N1CCN(C(=O)C2CN(C(=O)C3CC3)Cc3cc(Cl)ccc32)CC1 (stereo in doubt; (+)-44)	–
5	–	Cc1ccccc1N1CCN(C(=O)N2CN(C(=O)C3CCCCC3)Cc3cc(Cl)ccc32)CC1	–
5	390	Cc1ccccc1N1CCN(C(=O)N2CCCCc3cc(Cl)ccc32)CC1	–
5	40	Cc1ccccc1N1CCN(C(=O)C2CN(C(=O)C3CCCCC3)Cc3cc(Cl)ccc32)CC1 (racemic)	–
4.1	80	Cc1ccccc1N1CCN(C(=O)N2CCNc3cc(Cl)ccc32)CC1	microsomal CLint at 1 µM [3]: 210 µL/min/mg; microsomal CLint at 1 µM [4]: 265 µL/min/mg; microsomal CLint at 1 µM [5]: 66 µL/min/mg; Papp A→B at 1 µM [6]: 17 ×10⁻⁶ cm/s
4	35	Cc1ccccc1N1CCN(C(=O)N2CN(C(=O)CO)Cc3cc(Cl)ccc32)CC1	–
4	280	O=C(N1CCC2(CC1)OCc1ccccc12)N1CCNc2cc(Cl)ccc21	–
3.3	10	Cc1ccccc1N1CCN(C(=O)N2CN(C(=O)C3CC3)Cc3cc(Cl)ccc32)CC1	–
3	40	Cc1ccccc1N1CCN(C(=O)N2CNCc3cc(Cl)ccc32)CC1	–
2.6	11	Cc1ccccc1N1CCN(C(=O)N2CN(C(=O)C(C)C)Cc3cc(Cl)ccc32)CC1	–
2.3	25	Cc1ccccc1N1CCN(C(=O)N2C[C@H](C(=O)C3CCCC3)Cc3cc(Cl)ccc32)CC1	–
2	55	CN1CCN(C(=O)N2CCN(c3ncccc3Cl)CC2)c2ccc(Cl)cc21	–
